Measurements reported in ChEMBL document CHEMBL6092149, “Discovery of 1(2H)-phthalazinone and 1(2H)-isoquinolinone derivatives as potent hematopoietic progenitor kinase 1 (HPK1) inhibitors” (Eur J Med Chem, 2024).
pEC50, pIC50: −log10 of the molar value.

Tests used:
[1] = molecular target: T1, Mitogen-activated protein kinase kinase kinase kinase 1 (Homo sapiens, UniProt Q92918); assay: Inhibition of N-terminal DYKDDDDK recombinant human HPK1 (1 to 346 residues) expressed in Sf21 insect cells preincubated for 10 min followed by fluorescein PKC and ATP addition and measured after 90 min by Envision2104 Multilabel Reader analysis
Target sequence in this assay (Q92918 whole entry, the tested form may be a part): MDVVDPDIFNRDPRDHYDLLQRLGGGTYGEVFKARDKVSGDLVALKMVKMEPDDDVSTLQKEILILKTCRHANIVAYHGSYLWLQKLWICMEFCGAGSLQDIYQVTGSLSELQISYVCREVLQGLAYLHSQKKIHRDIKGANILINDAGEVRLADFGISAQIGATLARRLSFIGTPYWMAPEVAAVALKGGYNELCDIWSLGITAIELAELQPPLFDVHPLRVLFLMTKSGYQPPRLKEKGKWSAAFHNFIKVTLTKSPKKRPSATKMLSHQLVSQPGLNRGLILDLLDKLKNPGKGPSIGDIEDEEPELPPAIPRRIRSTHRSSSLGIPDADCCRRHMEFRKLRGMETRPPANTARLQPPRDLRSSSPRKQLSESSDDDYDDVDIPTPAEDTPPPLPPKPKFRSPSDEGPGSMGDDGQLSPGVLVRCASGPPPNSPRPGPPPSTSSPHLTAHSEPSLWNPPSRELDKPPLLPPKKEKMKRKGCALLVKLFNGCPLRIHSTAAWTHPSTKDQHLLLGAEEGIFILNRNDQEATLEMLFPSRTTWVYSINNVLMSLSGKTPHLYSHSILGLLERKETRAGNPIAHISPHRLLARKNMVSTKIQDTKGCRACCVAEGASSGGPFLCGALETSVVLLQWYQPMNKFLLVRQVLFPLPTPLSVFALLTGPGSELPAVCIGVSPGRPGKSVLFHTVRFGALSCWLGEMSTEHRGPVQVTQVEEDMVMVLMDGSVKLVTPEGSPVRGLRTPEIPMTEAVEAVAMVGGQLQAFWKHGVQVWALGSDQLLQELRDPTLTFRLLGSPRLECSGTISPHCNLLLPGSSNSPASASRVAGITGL

[2] = molecular target: T1, Mitogen-activated protein kinase kinase kinase kinase 1; assay: Inhibition of HPK1 in human T cells assessed as increase in IL-2 secretion measured after 24 hrs by ELISA method; type: cell-based, T-cell

pIC50 [1] | pEC50 [2] | Activity ([2]; T-cell) | SMILES
< 6.00 | – | – | Cc1cc2c(-c3cnc4cc(F)ccn34)ccc(Nc3ccc(C4CCOCC4)c(CN(C)C)n3)c2c(=O)[nH]1
6.28 | – | – | CN(C)Cc1nc(Nc2ccc(-c3cnc4cc(F)ccn34)c3c2C(=O)NCC3)ccc1C1CCOCC1
7.41 | 6.65 | Dose-dependent-effect | O=c1[nH]ncc2c(-c3cnc4cc(F)ccn34)ccc(Nc3ccc(C4CCOCC4)c(CN4CCC(O)C4)n3)c12 (stereo not given)
